Reference: PubChem BioAssay AID1259407 (Chemical Carcinogenesis Research Information System (CCRIS), 2018)
Active and inactive are the calls of the source. The rule behind the calls is not given here.

System: CCRIS mutagenicity, Ames/micronucleus/aberration tests
Experiment: CCRIS mutagenicity studies
[1] = Test System: AMES SALMONELLA TYPHIMURIUM, Strain/Indicator: TA98, Metabolic Activation: HAMSTER, LIVER, S-9, AROCLOR 1254 (10%), Method: PREINCUBATION
[2] = Test System: AMES SALMONELLA TYPHIMURIUM, Strain/Indicator: TA98, Metabolic Activation: NONE, Method: PREINCUBATION
[3] = Test System: AMES SALMONELLA TYPHIMURIUM, Strain/Indicator: TA98, Metabolic Activation: RAT, LIVER, S-9, AROCLOR 1254 (10%), Method: PREINCUBATION
[4] = Test System: AMES SALMONELLA TYPHIMURIUM, Strain/Indicator: TA100, Metabolic Activation: HAMSTER, LIVER, S-9, AROCLOR 1254 (10%), Method: PREINCUBATION
[5] = Test System: AMES SALMONELLA TYPHIMURIUM, Strain/Indicator: TA100, Metabolic Activation: NONE, Method: PREINCUBATION
[6] = Test System: AMES SALMONELLA TYPHIMURIUM, Strain/Indicator: TA100, Metabolic Activation: RAT, LIVER, S-9, AROCLOR 1254 (10%), Method: PREINCUBATION
[7] = Test System: AMES SALMONELLA TYPHIMURIUM, Strain/Indicator: TA1535, Metabolic Activation: HAMSTER, LIVER, S-9, AROCLOR 1254 (10%), Method: PREINCUBATION
[8] = Test System: AMES SALMONELLA TYPHIMURIUM, Strain/Indicator: TA1535, Metabolic Activation: NONE, Method: PREINCUBATION
[9] = Test System: AMES SALMONELLA TYPHIMURIUM, Strain/Indicator: TA1535, Metabolic Activation: RAT, LIVER, S-9, AROCLOR 1254 (10%), Method: PREINCUBATION
[10] = Test System: AMES SALMONELLA TYPHIMURIUM, Strain/Indicator: TA1537, Metabolic Activation: HAMSTER, LIVER, S-9, AROCLOR 1254 (10%), Method: PREINCUBATION
[11] = Test System: AMES SALMONELLA TYPHIMURIUM, Strain/Indicator: TA1537, Metabolic Activation: NONE, Method: PREINCUBATION
[12] = Test System: AMES SALMONELLA TYPHIMURIUM, Strain/Indicator: TA1537, Metabolic Activation: RAT, LIVER, S-9, AROCLOR 1254 (10%), Method: PREINCUBATION
[13] = Test System: AMES SALMONELLA TYPHIMURIUM, Strain/Indicator: TA98(1,8-DNP6), Metabolic Activation: NONE, Method: PREINCUBATION
[14] = Test System: AMES SALMONELLA TYPHIMURIUM, Strain/Indicator: TA98, Metabolic Activation: RAT, LIVER, S-9, AROCLOR 1254, Method: PREINCUBATION

Fc1ccc2ncccc2c1F
mutagenic call (Test System: AMES SALMONELLA TYPHIMURIUM, Strain/Indicator: TA100, Metabolic Activation: RAT LIVER S-9, PHENOBARBITAL AND 5,6-BENZOFLAVONE, Method: PREINCUBATION): active; positive

C=C1C[C@@]23CC[C@H]4[C@@](C)(CCC[C@@]4(C)C(=O)O[C@@H]4O[C@H](CO)[C@@H](O)[C@H](O)[C@H]4O)[C@@H]2CC[C@]1(O[C@@H]1O[C@H](CO)[C@@H](O)[C@H](O)[C@H]1O[C@@H]1O[C@@H](C)[C@H](O)[C@@H](O)[C@H]1O)C3
mutagenic call (Test System: AMES SALMONELLA TYPHIMURIUM, Strain/Indicator: TM677, Metabolic Activation: RAT, LIVER, S-9, AROCLOR 1254, Method: PREINCUBATION): inactive; negative

Nc1ccccc1C(=O)O
mutagenic call [1]: inactive; negative
mutagenic call [2]: inactive; negative
mutagenic call [3]: inactive; negative
mutagenic call [4]: inactive; negative
mutagenic call [5]: inactive; negative
mutagenic call [6]: inactive; negative
mutagenic call [7]: inactive; negative
mutagenic call [8]: inactive; negative
mutagenic call [9]: inactive; negative
mutagenic call [10]: inactive; negative
mutagenic call [11]: inactive; negative
mutagenic call [12]: inactive; negative
mutagenic call (Test System: CHINESE HAMSTER OVARY, Strain/Indicator: CHO-K1-BH4 (HGPRT)/6-THIOGUANINE, Metabolic Activation: NONE): inactive; negative
mutagenic call (Test System: CHINESE HAMSTER OVARY, Strain/Indicator: CHO-K1-BH4 (HGPRT)/6-THIOGUANINE, Metabolic Activation: S-9): inactive; negative
mutagenic call (Test System: MOUSE LYMPHOMA, Strain/Indicator: L5178Y (TK+/TK-), Metabolic Activation: RAT, LIVER, S-9, AROCLOR 1254, Method: SUSPENSION/PLATE): active; positive
mutagenic call (Test System: Mouse lymphoma, Strain/Indicator: L5178Y (tk+/tk-), Metabolic Activation: None, Method: Suspension/plate): inactive; negative
mutagenic call (Test System: Mouse lymphoma, Strain/Indicator: L5178Y (tk+/tk-), Metabolic Activation: Rat, Liver, S-9, Aroclor 1254, Method: Suspension/plate): active; positive

CC(=O)Nc1ccc(Oc2ccc(N=O)cc2)cc1
mutagenic call [13]: active; positive
mutagenic call (Test System: AMES SALMONELLA TYPHIMURIUM, Strain/Indicator: TA98(1,8-DNP6), Metabolic Activation: RAT, LIVER, S-9, AROCLOR 1254, Method: PREINCUBATION): active; positive
mutagenic call (Test System: AMES SALMONELLA TYPHIMURIUM, Strain/Indicator: TA98(NR), Metabolic Activation: NONE, Method: PREINCUBATION): active; positive
mutagenic call (Test System: AMES SALMONELLA TYPHIMURIUM, Strain/Indicator: TA98(NR), Metabolic Activation: RAT, LIVER, S-9, AROCLOR 1254, Method: PREINCUBATION): active; positive
mutagenic call [2]: active; positive
mutagenic call [14]: active; positive
mutagenic call (Test System: AMES SALMONELLA TYPHIMURIUM, Strain/Indicator: TA100(NR), Metabolic Activation: NONE, Method: PREINCUBATION): active; positive
mutagenic call [5]: active; positive

Cc1cc2c3ccccc3ccc2c2ccccc12
mutagenic call (Test System: AMES SALMONELLA TYPHIMURIUM, Strain/Indicator: TA98, Metabolic Activation: RAT, LIVER, CYTOSOL, AROCLOR 1254, Method: STANDARD PLATE): inactive; negative
mutagenic call (Test System: AMES SALMONELLA TYPHIMURIUM, Strain/Indicator: TA98, Metabolic Activation: RAT, LIVER, MICROSOMES, AROCLOR 1254, Method: STANDARD PLATE): inactive; negative
mutagenic call (Test System: AMES SALMONELLA TYPHIMURIUM, Strain/Indicator: TA100, Metabolic Activation: RAT, LIVER, MICROSOMES, 6-METHYLCHRYSENE, Method: STANDARD PLATE): inactive; negative
mutagenic call (Test System: AMES SALMONELLA TYPHIMURIUM, Strain/Indicator: TA100, Metabolic Activation: RAT, LIVER, MICROSOMES, AROCLOR 1254, Method: STANDARD PLATE): inactive; negative
mutagenic call (Test System: AMES SALMONELLA TYPHIMURIUM, Strain/Indicator: TA100, Metabolic Activation: RAT, LIVER, MICROSOMES, Method: STANDARD PLATE): inactive; negative

CC(=O)ON(C(C)=O)c1ccc(-c2ccccc2)cc1
mutagenic call (Test System: AMES SALMONELLA TYPHIMURIUM, Strain/Indicator: TA98(1,8-DNP6), Metabolic Activation: HUMAN, UROEPITHELIAL CELL, MICROSOMES, Method: PREINCUBATION): active; positive
mutagenic call [13]: active; positive
mutagenic call (Test System: AMES SALMONELLA TYPHIMURIUM, Strain/Indicator: TA98, Metabolic Activation: DOG, BLADDER, MICROSOMES, Method: PREINCUBATION): active; positive
mutagenic call (Test System: AMES SALMONELLA TYPHIMURIUM, Strain/Indicator: TA98, Metabolic Activation: DOG, LIVER, MICROSOMES, Method: PREINCUBATION): active; positive
mutagenic call (Test System: AMES SALMONELLA TYPHIMURIUM, Strain/Indicator: TA98, Metabolic Activation: HUMAN, UROEPITHELIAL CELL, CYTOSOL, Method: PREINCUBATION): inactive; negative
mutagenic call (Test System: AMES SALMONELLA TYPHIMURIUM, Strain/Indicator: TA98, Metabolic Activation: HUMAN, UROEPITHELIAL CELL, MICROSOMES, Method: PREINCUBATION): active; positive
mutagenic call (Test System: AMES SALMONELLA TYPHIMURIUM, Strain/Indicator: TA98, Metabolic Activation: HUMAN, UROEPITHELIAL CELL, S-9, Method: PREINCUBATION): active; positive
mutagenic call [2]: active; positive
mutagenic call (Test System: AMES SALMONELLA TYPHIMURIUM, Strain/Indicator: TA98, Metabolic Activation: RAT, BLADDER, MICROSOMES, Method: PREINCUBATION): active; positive
mutagenic call (Test System: AMES SALMONELLA TYPHIMURIUM, Strain/Indicator: TA98, Metabolic Activation: RAT, LIVER, MICROSOMES, Method: PREINCUBATION): active; positive
mutagenic call (Test System: AMES SALMONELLA TYPHIMURIUM, Strain/Indicator: YG1024, Metabolic Activation: HUMAN, UROEPITHELIAL CELL, MICROSOMES, Method: PREINCUBATION): active; positive
mutagenic call (Test System: UDS HUMAN FIBROBLASTS, Strain/Indicator: THY INCORP (NON-S-PHASE), Metabolic Activation: NONE, Method: AUTORADIOGRAPHY): active; positive

NC(=O)c1cnccn1
mutagenic call [1]: inactive; negative
mutagenic call [2]: inactive; negative
mutagenic call [3]: inactive; negative
mutagenic call [4]: inactive; negative
mutagenic call [5]: inactive; negative
mutagenic call [6]: inactive; negative
mutagenic call [7]: inactive; negative
mutagenic call [8]: inactive; negative
mutagenic call [9]: inactive; negative
mutagenic call [10]: inactive; negative
mutagenic call [11]: inactive; negative
mutagenic call [12]: inactive; negative

Oc1cccc2sc3ccccc3c12
mutagenic call (Test System: CHINESE HAMSTER OVARY, Strain/Indicator: CHO-K1-BH4 (HGPRT)/6-THIOGUANINE, Metabolic Activation: RAT, LIVER, S-9, AROCLOR (4%)): active; positive

Oc1ccc2ccc3cc4ccccc4c4ccc1c2c34
mutagenic call [2]: inactive; negative
mutagenic call [14]: active; positive
mutagenic call (Test System: AMES SALMONELLA TYPHIMURIUM, Strain/Indicator: TA98, Metabolic Activation: RAT, LUNG, S-9, Method: PREINCUBATION): active; positive
mutagenic call (Test System: CHINESE HAMSTER V-79, Strain/Indicator: V-79/8-AZAGUANINE, Metabolic Activation: NONE, Method: STANDARD PLATE): active; positive
mutagenic call (Test System: CHINESE HAMSTER V-79, Strain/Indicator: V-79/OUABAIN, Metabolic Activation: NONE, Method: STANDARD PLATE): active; positive
